One data set has as its target T1, ABCG2 (Homo sapiens, UniProt Q9UNQ0).
T1 construct: monolayers of Caco-2 cells expressing ABCG2 were grown on a permeable support; endogenous in cells; host or cells: Caco-2
T1 sequence (Q9UNQ0 1-655): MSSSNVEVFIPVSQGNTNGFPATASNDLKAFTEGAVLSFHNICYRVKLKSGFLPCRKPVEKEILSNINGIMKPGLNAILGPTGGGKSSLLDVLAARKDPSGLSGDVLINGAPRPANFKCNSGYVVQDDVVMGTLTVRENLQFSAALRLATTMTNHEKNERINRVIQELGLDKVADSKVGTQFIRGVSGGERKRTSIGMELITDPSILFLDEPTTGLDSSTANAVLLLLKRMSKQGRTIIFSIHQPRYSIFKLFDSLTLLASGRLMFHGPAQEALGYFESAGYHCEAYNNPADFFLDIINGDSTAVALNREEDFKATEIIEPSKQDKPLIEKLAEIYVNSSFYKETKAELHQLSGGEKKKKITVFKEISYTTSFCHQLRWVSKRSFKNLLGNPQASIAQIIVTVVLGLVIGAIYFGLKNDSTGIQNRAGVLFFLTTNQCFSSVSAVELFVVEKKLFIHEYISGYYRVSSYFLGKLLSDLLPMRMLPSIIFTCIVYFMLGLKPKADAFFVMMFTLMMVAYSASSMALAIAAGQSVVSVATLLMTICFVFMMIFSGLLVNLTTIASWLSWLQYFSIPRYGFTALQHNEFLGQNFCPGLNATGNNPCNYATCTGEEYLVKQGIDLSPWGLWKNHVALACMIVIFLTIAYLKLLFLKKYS
Put plainly: ABCG2 genistein net B→A flux in Caco-2 monolayers. Type of data set: cell-based. The protocol:
For ABCG2, monolayers of Caco-2 cells expressing ABCG2 were grown on a permeable support ([…] membranes) in 24-transwell plates. […] Each treatment was assayed in triplicate: [^3H]-genistein substrate at 2 nM was then added for an additional 120 minutes at 37 °C. For basolateral-to-apical (B → A) flux measurements, genistein was placed in the basolateral compartment only (donor well) and a sample was taken after the 120-minute incubation period from the apical compartment (receiver well). For apical-to-basolateral (A → B) flux measurements, genistein was placed in the apical compartment only (donor well) and a sample was taken after the 120-minute incubation period from the basolateral compartment (receiver well). Samples were then subjected to scintillation counting. The inhibition of BCRP/ABCG2 was then calculated by the net B → A flux method. […]
The net transport in the B → A direction was determined by subtracting the substrate flux in the A → B direction from that in the B → A direction: NetB→Aflux=PappB→A‐PappA→B.
Percent inhibition is calculated by dividing the Net (B → A) flux in the presence of the inhibitor by the Net (B → A) flux in the absence of the inhibitor (inh): PercentInhibition=100‐100*NetB→Ainh/meanNetB→A.

A further data set concerns HepG2 cells. Put plainly: Mitochondrial toxicity assay (JC-1 mitochondrial membrane potential). Type of data set: cell-based, human. As to conditions: HepG2, highest concentration tested 33 μM. On the procedure:
HepG2 cells were counted via hemocytometer and diluted into equal volumes of serum-free Opti-MEM (Life Technologies) and JC-1 Staining Solution (Sigma catalog number CS0390) at 300,000 cells/mL in the presence of 2.5 μg/mL JC-1. Cells were incubated at 37 °C and 5 % CO2 for 20 minutes, rinsed once with Hank's Balanced Salt Solution, and resuspended to the same concentration in serum-free Opti-MEM. Cells were then seeded into 96-well black-sided clear-bottom tissue culture plates at 30,000 cells/100 μL/well. Three replicates per experimental condition group were used. Compound was added with the final dimethyl sulfoxide (DMSO) concentration at 0.5 %. After 2 hours at 37 °C and 5 % CO2, medium was aspirated and plates were read on a Gemini EM spectrofluorometer (Molecular Devices). Fluorescence of JC-1 monomers was monitored by excitation at 490 nm and emission at 530 nm (green) and of aggregates by excitation at 525 nm and emission at 590 nm (red). The ratio of J-aggregates to monomers was calculated, with a lower ratio indicating increased cell toxicity. The percent change in mitochondrial membrane potential (Ψm) was calculated as follows: […]

For data set [1] the following is noted: cited from earlier work.
For a further data set, the target named is T2, GLUT9 (SLC2A9v2/GLUT9ΔN) (Homo sapiens, UniProt Q9NRM0).
T2 construct: expressed in transfected cells
T2 sequence (Q9NRM0 1-511 isoform Q9NRM0-2): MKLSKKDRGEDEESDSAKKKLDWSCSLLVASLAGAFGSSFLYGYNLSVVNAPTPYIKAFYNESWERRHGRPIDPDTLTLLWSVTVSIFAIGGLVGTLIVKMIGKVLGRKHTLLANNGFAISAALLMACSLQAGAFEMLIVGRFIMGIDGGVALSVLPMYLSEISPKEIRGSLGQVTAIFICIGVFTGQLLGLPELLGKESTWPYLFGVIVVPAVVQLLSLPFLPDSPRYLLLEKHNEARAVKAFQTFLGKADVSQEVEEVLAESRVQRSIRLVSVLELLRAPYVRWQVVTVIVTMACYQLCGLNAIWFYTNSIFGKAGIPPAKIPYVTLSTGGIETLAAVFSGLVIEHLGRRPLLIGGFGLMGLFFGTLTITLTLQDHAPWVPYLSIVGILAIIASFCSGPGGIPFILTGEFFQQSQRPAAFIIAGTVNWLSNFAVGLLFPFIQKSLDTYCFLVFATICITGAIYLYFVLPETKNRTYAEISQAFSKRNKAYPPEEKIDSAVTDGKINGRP
Put plainly: GLUT9 urate transport in cRNA-injected oocytes. Type of data set: cell-based. The protocol: For GLUT9, SLC2A9v2/GLUT9ΔN in pCMV6/neo was linearized with XmaI and NotI and cRNA transcribed using the mMessage mMachine T7 kit (Ambion). Oocytes were injected with either water or 25 ng cRNA and incubated for 3 to 5 days in ND96 buffer. For each point, 10 oocytes were incubated with 100 μM ^14C-uric acid in ND96 buffer with and without test compounds at room temperature for 60 minutes. The oocytes were then washed three to four times in ice-cold ND96 buffer and lysed prior to scintillation counting.

The values below come from paper PMC5048659 (Arthritis Research & Therapy, 2016).

“Also recorded” adds a separate entry of the source. A value given as a limit tells only on which side of the number the result lay.

As to `O=C(O)CSc1nnc(Br)n1-c1ccc(C2CC2)c2ccccc12` [Lesinurad, 2-((5-bromo-4-(4-cyclopropylnaphthalen-1-yl)-4H-1,2,4-triazol-3-yl)thio) acetic acid], the IC50 was more than 100 µM on ABCG2 (Caco-2, 2 nM [3H]-genistein, 120 min, read-out: Potency against ABCG2) and more than 100 µM on GLUT9 (SLC2A9v2/GLUT9ΔN) (100 μM 14C-uric acid, 60 min, read-out: Potency against GLUT9). For the same molecule, at ABCG2 (Caco-2, at up to 100 μM), the “Effect on ABCG2 activity” value was “no effect”. In addition, the Mitochondrial toxicity result in the data set with HepG2 cells is listed as “no mitochondrial toxicity”. Further, the Plasma protein binding in data set [1] is recorded as 98.4%. In addition, the “Effect on GLUT9 urate transport” value on GLUT9 (SLC2A9v2/GLUT9ΔN) (compound at up to 100 μM) is “no effect; also recorded: does not inhibit”.
